The results in this text go back to patent US11325899B2, “Benzofurane and benzothiophene derivatives as PGE2 receptor modulators” (IDORSIA PHARMACEUTICALS LTD, priority 2017, dated 2022).

Assay type in all cases: cell-based
Test [1] has as its target T1, PTGER2 (EP2) (Homo sapiens, UniProt P43116).
T1 construct: host or cells: HEK 293 (PathHunter PTGER2 b-arrestin cell line)
Kind of test: hEP2 b-arrestin assay (PathHunter HEK 293 PTGER2 b-arrestin cells). The note with it: antagonistic activity, beta-arrestin assay; read-out: hEP2 b-arr IC50. The procedure, abridged: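 PathHunter HEK293 cells with ProLink-tagged EP2 and EA-β-arrestin 2 preincubated 15 min at 37 °C with compound (10 μM-2 nM or 1 μM-0.2 nM), then stimulated 120 min with 5 μM PGE2 (EC80). β-gal complementation read by chemiluminescence; IC50 from duplicate dose-response versus DMSO.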

In test [2] the target is T2, PTGER4 (EP4) (Homo sapiens, UniProt P35408).
T2 construct: host or cells: HEK 293 (PathHunter PTGER4 b-arrestin cell line)
Briefly: hEP4 b-arrestin assay (PathHunter HEK 293 PTGER4 b-arrestin cells). The note with it: antagonistic activity, beta-arrestin assay; read-out: hEP4 b-arr IC50. The procedure, abridged: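 PathHunter HEK 293 cells expressing ProLink-tagged human EP4 and EA-β-arrestin 2, seeded 24 h before. Compounds (10 μM–2 nM or 1 μM–0.2 nM) preincubated 15 min at 37 °C, then 20 nM PGE2 (EC80) for 120 min at 37 °C. β-gal complementation luminescence read; IC50 from duplicate dose-response curves versus DMSO control.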

Test [3] concerns the target T3, EP4 receptor (Homo sapiens, UniProt P35408).
T3 construct: BT549 breast cancer cells, express high endogenous EP4 levels and very low EP2 levels; host or cells: BT549 breast cancer cells
Kind of test: hEP4 cAMP assay (BT549 breast cancer cells, HTRF cAMP, PGE2 stimulation). The note with it: antagonistic activity, PGE2 6 nM (EC80). The procedure, abridged:
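BT549 cells, with endogenous EP4 and very low EP2, were preincubated 45 min at room temperature with compound in HBSS/HEPES/BSA buffer with 2 mM IBMX. They were then stimulated 30 min with 6 nM PGE2 (EC80). cAMP was measured by HTRF competitive immunoassay against a calibrator; IC50 from duplicate dose-response as % of DMSO control.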

Each structure is given as a SMILES string.

T1 sequence (P43116 whole entry): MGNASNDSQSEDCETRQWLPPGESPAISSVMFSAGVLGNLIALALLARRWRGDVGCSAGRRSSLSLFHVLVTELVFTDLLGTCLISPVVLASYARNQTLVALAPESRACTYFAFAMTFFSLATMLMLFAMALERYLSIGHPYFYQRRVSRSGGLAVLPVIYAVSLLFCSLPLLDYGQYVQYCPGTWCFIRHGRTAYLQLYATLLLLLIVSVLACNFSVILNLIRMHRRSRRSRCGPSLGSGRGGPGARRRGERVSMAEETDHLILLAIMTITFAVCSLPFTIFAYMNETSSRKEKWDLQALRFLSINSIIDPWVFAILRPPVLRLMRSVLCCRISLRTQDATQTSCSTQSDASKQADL
T2 sequence (P35408 whole entry): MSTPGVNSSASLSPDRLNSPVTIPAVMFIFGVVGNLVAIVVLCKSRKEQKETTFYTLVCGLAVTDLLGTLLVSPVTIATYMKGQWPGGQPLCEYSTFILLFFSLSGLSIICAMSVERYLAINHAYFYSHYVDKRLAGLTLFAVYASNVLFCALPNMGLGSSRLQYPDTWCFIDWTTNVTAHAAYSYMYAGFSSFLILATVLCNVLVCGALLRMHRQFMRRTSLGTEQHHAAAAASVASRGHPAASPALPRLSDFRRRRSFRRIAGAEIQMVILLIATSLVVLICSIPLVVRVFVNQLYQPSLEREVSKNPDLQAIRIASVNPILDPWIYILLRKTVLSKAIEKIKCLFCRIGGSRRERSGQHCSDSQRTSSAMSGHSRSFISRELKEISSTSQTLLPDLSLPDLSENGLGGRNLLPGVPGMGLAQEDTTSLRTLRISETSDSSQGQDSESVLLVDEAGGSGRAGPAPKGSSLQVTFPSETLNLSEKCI
T3 sequence (P35408 whole entry): as above

For `Cc1sc2c(C)cc(F)cc2c1CCNc1cc(-c2ccc(C(=O)O)c(OC3CCC3)c2)ncn1` [Example 138, 2-Cyclobutoxy-4-{6-[2-(5-fluoro-2,7-dimethyl-benzo[b]thiophen-3-yl)-ethylamino]-pyrimidin-4-yl}-benzoic acid], the IC50 in test [1] was determined as 14 nM; in test [2], 269 nM; in test [3], 478 nM.

For the compound `COc1ccc(F)c2c(CCNc3cc(-c4ccc(C(=O)O)c(OC5CCC5)c4)ncn3)c(C)oc12` [Example 139, 2-Cyclobutoxy-4-{6-[2-(4-fluoro-7-methoxy-2-methyl-benzofuran-3-yl)-ethylamino]-pyrimidin-4-yl}-benzoic acid], the IC50 in test [1] worked out at 51 nM; in test [2], 209 nM; in test [3], 481 nM.

Turning to `Cc1oc2c(C)cc(F)cc2c1CCNc1cc(-c2ccc(C(=O)O)c(OC3CCC3)c2)ncn1` [Example 140, 2-Cyclobutoxy-4-{6-[2-(5-fluoro-2,7-dimethyl-benzofuran-3-yl)-ethylamino]-pyrimidin-4-yl}-benzoic acid], the values for the IC50 in test [1], in test [2] and in test [3] were 37 nM, 1420 nM and 580 nM, respectively.

Consider `COc1cc(F)c(F)c2c(CCNc3cc(-c4ccc(C(=O)O)c(OC5CCC5)c4)ncn3)c(C)oc12` [Example 141, 2-Cyclobutoxy-4-{6-[2-(4,5-difluoro-7-methoxy-2-methyl-benzofuran-3-yl)-ethylamino]-pyrimidin-4-yl}-benzoic acid], for which the IC50 was 140 nM in test [1], 340 nM in test [2] and 582 nM in test [3].

For the compound `CCOc1cc(-c2cc(NCCc3c(C)sc4c(C)cc(F)cc34)ncn2)ccc1-c1nnn[nH]1` [Example 142, {6-[3-Ethoxy-4-(1H-tetrazol-5-yl)-phenyl]-pyrimidin-4-yl}-[2-(5-fluoro-2,7-dimethyl-benzo[b]thiophen-3-yl)-ethyl]-amine], the values for the IC50 in test [1], in test [2] and in test [3] were 12 nM, 41 nM and 105 nM, respectively.

With `CCOc1cc(-c2cc(NCCc3c(C)sc4c(C)cc(F)cc34)ncn2)ccc1OCCC(=O)O` [Example 143, 3-(2-Ethoxy-4-{6-[2-(5-fluoro-2,7-dimethyl-benzo[b]thiophen-3-yl)-ethylamino]-pyrimidin-4-yl}-phenoxy)-propionic acid], the values for the IC50 in test [1], in test [2] and in test [3] were 52 nM, 63 nM and 115 nM, respectively.

On to `CCCCOc1cc(-c2cc(NCCc3c(C)sc4c(C)cc(F)cc34)ncn2)cc(F)c1C(=O)O` [Example 144, 2-Butoxy-6-fluoro-4-{6-[2-(5-fluoro-2,7-dimethyl-benzo[b]thiophen-3-yl)-ethylamino]-pyrimidin-4-yl}-benzoic acid], for which the IC50 was 26 nM in test [1], 92 nM in test [2] and 112 nM in test [3].

Regarding `COc1ccc(F)c2c(CCNc3cc(-c4ccc(C(=O)O)c(OC5CCC5)c4F)ncn3)c(C)sc12` [Example 146, 2-Cyclobutoxy-3-fluoro-4-{6-[2-(4-fluoro-7-methoxy-2-methyl-benzo[b]thiophen-3-yl)-ethylamino]-pyrimidin-4-yl}-benzoic acid], the IC50 in test [1] turned out to be 47 nM; in test [2], 357 nM; in test [3], 243 nM.

`COc1cc(Cl)cc2c(CCNc3cc(-c4ccc(C(=O)O)c(OC5CCC5)c4F)ncn3)c(C)oc12` [Example 147, 4-{6-[2-(5-Chloro-7-methoxy-2-methyl-benzofuran-3-yl)-ethylamino]-pyrimidin-4-yl}-2-cyclobutoxy-3-fluoro-benzoic acid]: the figures for the IC50 in test [1], in test [2] and in test [3] were 213 nM, 873 nM and 889 nM, respectively.

As to `Cc1sc2c(C)ccc(F)c2c1CCNc1cc(-c2cc(F)c(C(=O)O)c(OC3CCC3)c2)ncn1` [Example 148, 2-Cyclobutoxy-6-fluoro-4-{6-[2-(4-fluoro-2,7-dimethyl-benzo[b]thiophen-3-yl)-ethylamino]-pyrimidin-4-yl}-benzoic acid], the IC50 in test [1] worked out at 30 nM; in test [2] it was 43 nM; in test [3], 238 nM.

Take `COc1ccc(F)c2c(CCNc3cc(-c4cc(F)c(C(=O)O)c(OC5CCC5)c4)ncn3)c(C)sc12` [Example 149, 2-Cyclobutoxy-6-fluoro-4-{6-[2-(4-fluoro-7-methoxy-2-methyl-benzo[b]thiophen-3-yl)-ethylamino]-pyrimidin-4-yl}-benzoic acid]: the IC50 amounted to 13 nM in test [1], 67 nM in test [2] and 241 nM in test [3].

Turning to `COc1cc(F)c(F)c2c(CCNc3cc(-c4cc(F)c(C(=O)O)c(OC5CCC5)c4)ncn3)c(C)oc12` [Example 150, 2-Cyclobutoxy-4-{6-[2-(4,5-difluoro-7-methoxy-2-methyl-benzofuran-3-yl)-ethylamino]-pyrimidin-4-yl}-6-fluoro-benzoic acid], the IC50 in test [1] worked out at 109 nM; in test [2], 363 nM; in test [3], 450 nM.

For `COc1cc(Cl)cc2c(CCNc3cc(-c4cc(F)c(C(=O)O)c(OC5CCC5)c4)ncn3)c(C)oc12` [Example 151, 4-{6-[2-(5-Chloro-7-methoxy-2-methyl-benzofuran-3-yl)-ethylamino]-pyrimidin-4-yl}-2-cyclobutoxy-6-fluoro-benzoic acid], the IC50 is 60 nM in test [1], 163 nM in test [2] and 631 nM in test [3].

As for `Cc1sc2c(C)cc(F)cc2c1CCNc1cc(-c2ccc(C(=O)O)c(OC3CCCC3)c2)ncn1` [Example 152, 2-Cyclopentyloxy-4-{6-[2-(5-fluoro-2,7-dimethyl-benzo[b]thiophen-3-yl)-ethylamino]-pyrimidin-4-yl}-benzoic acid], the results for the IC50 in test [1], in test [2] and in test [3] were 27 nM, 337 nM and 581 nM, respectively.

With `COc1ccc(Cl)c2c(CCNc3cc(-c4ccc(C(=O)O)c(OC5CCCC5)c4)ncn3)c(C)sc12` [Example 153, 4-{6-[2-(4-Chloro-7-methoxy-2-methyl-benzo[b]thiophen-3-yl)-ethylamino]-pyrimidin-4-yl}-2-cyclopentyloxy-benzoic acid], the IC50 was found to be 46 nM in test [1], 157 nM in test [2] and 827 nM in test [3].

Turning to `Cc1oc2c(C)cc(F)cc2c1CCNc1cc(-c2ccc(C(=O)O)c(OC3CCCC3)c2)ncn1` [Example 154, 2-Cyclopentyloxy-4-{6-[2-(5-fluoro-2,7-dimethyl-benzofuran-3-yl)-ethylamino]-pyrimidin-4-yl}-benzoic acid], the IC50 in test [1] stood at 47 nM; in test [2], 911 nM; in test [3], 901 nM.

In the case of `CCOc1cc(-c2cc(NCCc3c(C)sc4c(C)cc(F)cc34)ncn2)ccc1-c1noc(=O)[nH]1` [Example 155, 3-(2-Ethoxy-4-{6-[2-(5-fluoro-2,7-dimethyl-benzo[b]thiophen-3-yl)-ethylamino]-pyrimidin-4-yl}-phenyl)-[1,2,4]oxadiazol-5(4H)-one [tautomeric form: 3-(2-ethoxy-4-(6-((2-(5-fluoro-2,7-dimethylbenzo[b]thiophen-3-yl)ethyl)amino)pyrimidin-4-yl)phenyl)-[1,2,4]oxadiazol-5-ol]], the IC50 in test [1] amounted to 18 nM; in test [2], 47 nM; in test [3], 108 nM.

Consider `CCOc1cc(-c2cc(NCCc3c(C)sc4c(C)cc(F)cc34)ncn2)sc1C(=O)NS(N)(=O)=O` [Example 156, 3-Ethoxy-5-(6-((2-(5-fluoro-2,7-dimethylbenzo[b]thiophen-3-yl)ethyl)amino)pyrimidin-4-yl)-N-sulfamoylthiophene-2-carboxamide], for which the IC50 amounted to 5 nM in test [1], 26 nM in test [2] and 163 nM in test [3].

Turning to `CCOc1cc(-c2cc(NCCc3c(C)sc4c(C)cc(F)cc34)ncn2)sc1C(=O)NS(C)(=O)=O` [Example 157, N-(3-Ethoxy-5-{6-[2-(5-fluoro-2,7-dimethyl-benzo[b]thiophen-3-yl)-ethylamino]-pyrimidin-4-yl}-thiophene-2-carbonyl)-methanesulfonamide], the values for the IC50 in test [1], in test [2] and in test [3] were 8 nM, 42 nM and 69 nM, respectively.

Consider `CCOc1cc(-c2cc(NCCc3c(C)sc4c(C)cc(F)cc34)ncn2)sc1-c1nnn[nH]1` [Example 158, {6-[4-Ethoxy-5-(1H-tetrazol-5-yl)-thiophen-2-yl]-pyrimidin-4-yl}-[2-(5-fluoro-2,7-dimethyl-benzo[b]thiophen-3-yl)-ethyl]-amine], for which the values for the IC50 in test [1], in test [2] and in test [3] were 6 nM, 7 nM and 20 nM, respectively.

As to `CCOc1nc(-c2cc(NCCc3c(C)sc4c(C)cc(F)cc34)ncn2)sc1C(=O)O` [Example 160, 4-Ethoxy-2-{6-[2-(5-fluoro-2,7-dimethyl-benzo[b]thiophen-3-yl)-ethylamino]-pyrimidin-4-yl}-thiazole-5-carboxylic acid], the values for the IC50 in test [1], in test [2] and in test [3] were 15 nM, 16 nM and 18 nM, respectively.
